Experimental data from article PMC5866590 (Proceedings of the National Academy of Sciences of the …, 2018).
Read-outs that look alike come from different tables or passages of the source. Values belong to the molecule of their own block, whether it stands above or below them.

Molecular target: T1, FmlHLD (Escherichia coli, UniProt Q1RBS0)
T1 sequence (Q1RBS0 25-184): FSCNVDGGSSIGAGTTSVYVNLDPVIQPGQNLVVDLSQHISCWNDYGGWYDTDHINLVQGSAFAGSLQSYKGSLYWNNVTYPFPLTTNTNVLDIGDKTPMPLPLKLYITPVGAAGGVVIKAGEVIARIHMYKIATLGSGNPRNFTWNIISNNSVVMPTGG
Type: binding, Escherichia coli (UPEC strain UTI89)
Settings: for Percent inhibition (PI100) of FmlHLD binding to ds-BSM: mean with SEM in Table S2

[1] = Fig. 1B: 1 mM or 0.1 mM compounds

- Inhibition of FmlHLD binding to ds-BSM (in words) [1]: incapable of inhibiting FmlHLD
Compound: OC[C@H]1O[C@@H](O[C@H]2[C@H](O)[C@@H](O)C(O)O[C@@H]2CO)[C@H](O)[C@@H](O)[C@H]1O (stereo partly drawn) [Lac, Gal(β1-4)Glc, reference compound]

- Percent inhibition (PI100) of FmlHLD binding to ds-BSM (compound at 100 μM, 100 µM): 80%
Compound: O=c1ccc2nc3ccc(O[C@@H]4O[C@H](CO)[C@H](O)[C@H](O)[C@H]4O)cc3oc-2c1 [15β]

- Inhibition of FmlHLD binding to ds-BSM (in words) (compound at 100 μM): minor inhibitory activity
Compound: CC(C)S[C@@H]1O[C@H](CO)[C@H](O)[C@H](O)[C@H]1O [36β-thio, isopropyl β-thiogalactoside, reference compound]

Compound: OC[C@H]1OC(O)[C@H](O)[C@@H](O)[C@@H]1O (stereo partly drawn) [Glc, glucose, reference compound]
- Inhibition of FmlHLD binding to ds-BSM (in words) [1]: neither Man nor glucose (Glc) had any detectable effect

- Percent inhibition (PI100) of FmlHLD binding to ds-BSM (compound at 100 μM, 100 µM): 14%
Compound: O=c1c(O[C@@H]2O[C@H](CO)[C@H](O)[C@H](O)[C@H]2O)c(-c2ccc(O)c(O)c2)oc2cc(O)cc(O)c12 [26β, quercetin galactoside]

- Percent inhibition (PI100) of FmlHLD binding to ds-BSM (compound at 100 μM, 100 µM): 77%
Compound: OC[C@H]1O[C@@H](Oc2ccccc2)[C@H](O)[C@@H](O)[C@H]1O [1β, phenyl β-galactoside]

- Percent inhibition (PI100) of FmlHLD binding to ds-BSM (compound at 100 μM, 100 µM): 29%
Compound: OC[C@H]1O[C@@H](Oc2cc3c(O)cc(O)cc3[o+]c2-c2ccc(O)c(O)c2)[C@H](O)[C@@H](O)[C@H]1O [24β, cyanidin galactoside]

- Inhibition of FmlHLD binding to ds-BSM (in words) (compound at 1 mM): capable of inhibiting FmlHLD
Compound: O=C[C@H](O)[C@@H](O)[C@@H](O)[C@H](O)CO [Gal, galactose, reference compound]

- Inhibition of FmlHLD binding to ds-BSM (in words) (compound at 1 mM): capable of inhibiting FmlHLD
Compound: CC(=O)N[C@@H]1[C@@H](O[C@@H]2O[C@H](CO)[C@H](O)[C@H](O)[C@H]2O)[C@@H](O)[C@@H](CO)O[C@@H]1O [TF, Gal(β1-3)GalNAc(α), reference compound]

- Percent inhibition (PI100) of FmlHLD binding to ds-BSM (compound at 100 μM): 3.6%
Compound: COc1cc(-c2[o+]c3cc(O)cc(O)c3cc2O[C@@H]2O[C@H](CO)[C@H](O)[C@H](O)[C@H]2O)ccc1O [25β]

Compound: OC[C@H]1OC(O)[C@@H](O)[C@@H](O)[C@@H]1O (stereo partly drawn) [Man, mannose, reference compound]
- Inhibition of FmlHLD binding to ds-BSM (in words) [1]: neither Man nor glucose (Glc) had any detectable effect

- Inhibition of FmlHLD binding to ds-BSM (in words) (compound at 1 mM): capable of inhibiting FmlHLD
Compound: CC(=O)N[C@H]1C(O)O[C@H](CO)[C@H](O)[C@@H]1O (mixture of isomers) [GalNAc, N-acetylgalactosamine, reference compound]
